Source: ChEMBL document CHEMBL1909294, “Translating clinical findings into knowledge in drug safety evaluation--drug induced liver injury prediction system (DILIps)” (PLoS Comput Biol, 2011)

Experiments:
Hepatotoxicity [1] = system: Hepatotoxicity;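 on HepSE bilirubinemia: bilirubinemia hepatic side effect score drawn from the DILIps training data, a prediction system for drug-induced liver injury; call rule not given here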;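 on HepSE cholecystitis: Cholecystitis-related hepatic side effect score drawn from the DILIps (drug-induced liver injury prediction) training data set; call rule not given here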;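 on HepSE cholelithiasis: hepatic side effect score for cholelithiasis, drawn from the DILIps training data for predicting drug-induced liver injury; call rule not given here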;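 on HepSE cirrhosis: cirrhosis hepatic side effect score taken from the DILIps (drug-induced liver injury prediction) training set; call rule not given here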;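 on HepSE elevated liver function tests: hepatic side effect score for raised liver function tests, as recorded in the DILIps training set used for predicting drug-induced liver injury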; on HepSE hepatic failure: call rule not given here;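 on HepSE hepatomegaly: hepatic side effect score for hepatomegaly, taken from the training set of the DILIps drug-induced liver injury prediction system; call rule not given here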
Hepatotoxicity [2] = system: Hepatotoxicity; remark: listed apart in the source;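 on HepSE bilirubinemia: bilirubinemia hepatic side effect score drawn from the DILIps training data, a prediction system for drug-induced liver injury; call rule not given here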;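 on HepSE cholecystitis: Cholecystitis-related hepatic side effect score drawn from the DILIps (drug-induced liver injury prediction) training data set; call rule not given here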;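 on HepSE cholelithiasis: hepatic side effect score for cholelithiasis, drawn from the DILIps training data for predicting drug-induced liver injury; call rule not given here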;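 on HepSE cirrhosis: cirrhosis hepatic side effect score taken from the DILIps (drug-induced liver injury prediction) training set; call rule not given here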;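 on HepSE elevated liver function tests: hepatic side effect score for raised liver function tests, as recorded in the DILIps training set used for predicting drug-induced liver injury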; on HepSE hepatic failure: call rule not given here;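 on HepSE hepatomegaly: hepatic side effect score for hepatomegaly, taken from the training set of the DILIps drug-induced liver injury prediction system; call rule not given here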
Hepatotoxicity [3] = system: Hepatotoxicity; remark: listed apart in the source;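 on HepSE bilirubinemia: bilirubinemia hepatic side effect score drawn from the DILIps training data, a prediction system for drug-induced liver injury; call rule not given here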;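 on HepSE cholecystitis: Cholecystitis-related hepatic side effect score drawn from the DILIps (drug-induced liver injury prediction) training data set; call rule not given here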;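 on HepSE cholelithiasis: hepatic side effect score for cholelithiasis, drawn from the DILIps training data for predicting drug-induced liver injury; call rule not given here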;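 on HepSE cirrhosis: cirrhosis hepatic side effect score taken from the DILIps (drug-induced liver injury prediction) training set; call rule not given here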;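 on HepSE elevated liver function tests: hepatic side effect score for raised liver function tests, as recorded in the DILIps training set used for predicting drug-induced liver injury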; on HepSE hepatic failure: call rule not given here
Hepatotoxicity [4] = system: Hepatotoxicity; remark: listed apart in the source;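 on HepSE bilirubinemia: bilirubinemia hepatic side effect score drawn from the DILIps training data, a prediction system for drug-induced liver injury; call rule not given here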;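 on HepSE cholecystitis: Cholecystitis-related hepatic side effect score drawn from the DILIps (drug-induced liver injury prediction) training data set; call rule not given here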;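 on HepSE cholelithiasis: hepatic side effect score for cholelithiasis, drawn from the DILIps training data for predicting drug-induced liver injury; call rule not given here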;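 on HepSE cirrhosis: cirrhosis hepatic side effect score taken from the DILIps (drug-induced liver injury prediction) training set; call rule not given here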;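 on HepSE elevated liver function tests: hepatic side effect score for raised liver function tests, as recorded in the DILIps training set used for predicting drug-induced liver injury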; on HepSE hepatic failure: call rule not given here
Hepatotoxicity [5] = system: Hepatotoxicity; remark: listed apart in the source; on HepSE hepatic failure: call rule not given here
Hepatotoxicity [6] = system: Hepatotoxicity; remark: listed apart in the source; on HepSE hepatic failure: call rule not given here
Hepatotoxicity [7] = system: Hepatotoxicity; remark: listed apart in the source
Hepatotoxicity [8] = system: Hepatotoxicity; remark: listed apart in the source
Hepatotoxicity [9] = system: Hepatotoxicity; remark: listed apart in the source
Hepatotoxicity [10] = system: Hepatotoxicity; remark: listed apart in the source
Hepatotoxicity [11] = system: Hepatotoxicity; remark: listed apart in the source
Hepatotoxicity [12] = system: Hepatotoxicity; remark: listed apart in the source
Hepatotoxicity [13] = system: Hepatotoxicity; remark: listed apart in the source
Hepatotoxicity [14] = system: Hepatotoxicity; remark: listed apart in the source

Compound	HepSE_bilirubinemia (Hepatotoxicity [1])	HepSE_cholecystitis (Hepatotoxicity [2])	HepSE_cholelithiasis (Hepatotoxicity [3])	HepSE_cirrhosis (Hepatotoxicity [4])	HepSE_elevated liver function tests (Hepatotoxicity [5])	HepSE_hepatic failure (Hepatotoxicity [6])	HepSE_hepatic necrosis (Hepatotoxicity [7])	HepSE_hepatitis (Hepatotoxicity [8])	HepSE_hepatomegaly (Hepatotoxicity [9])	HepSE_jaundice (Hepatotoxicity [10])	HepSE_liver disease (Hepatotoxicity [11])	HepSE_liver fatty (Hepatotoxicity [12])	HepSE_liver function tests abnormal (Hepatotoxicity [13])	HepSE_Combined Scores (Hepatotoxicity [14])	further results
CC1(C)O[C@@H]2C[C@H]3[C@@H]4CCC5=CC(=O)CC[C@]5(C)[C@@]4(F)[C@@H](O)C[C@]3(C)[C@]2(C(=O)CCl)O1 [HALCINONIDE]	0	0	0	0	0	0	0	0	0	0	0	0	0	0	
CCC(=O)O[C@]1(C(=O)CCl)[C@@H](C)C[C@H]2[C@@H]3C[C@H](F)C4=CC(=O)C=C[C@]4(C)[C@@]3(F)[C@@H](O)C[C@@]21C [HALOBETASOL PROPIONATE]	0	0	0	0	0	0	0	0	0	0	0	0	0	0	
CCCCN(CCCC)CCC(O)c1cc2c(Cl)cc(Cl)cc2c2cc(C(F)(F)F)ccc12 (stereo not drawn) [HALOFANTRINE]	0	0	0	0	0	0	0	0	0	0	0	0	0	0	
O=C(CCCN1CCC(O)(c2ccc(Cl)cc2)CC1)c1ccc(F)cc1 [HALOPERIDOL]	0	0	0	0	0	0	0	0	0	1	0	0	0	1	
FC(F)(F)C(Cl)Br (stereo not drawn) [HALOTHANE]	0	0	0	0	0	0	1	0	0	0	0	0	0	1	
Oc1c(Cl)cc(Cl)c(Cl)c1Cc1c(O)c(Cl)cc(Cl)c1Cl [HEXACHLOROPHENE]	0	0	0	0	0	0	0	0	0	0	0	0	0	0	
NNc1nncc2ccccc12 [HYDRALAZINE]															HepSE_bilirubinemia (Hepatotoxicity [1]; Liver): 0; HepSE_cholecystitis (Hepatotoxicity [2]; Liver): 0; HepSE_cholelithiasis (Hepatotoxicity [3]; Liver): 0; HepSE_cirrhosis (Hepatotoxicity [4]; Liver): 0; HepSE_elevated liver function tests (Hepatotoxicity [5]; Liver): 0; HepSE_hepatic failure (Hepatotoxicity [6]; Liver): 0; HepSE_hepatic necrosis (Hepatotoxicity [7]; Liver): 0; HepSE_hepatitis (Hepatotoxicity [8]; Liver): 1; HepSE_hepatomegaly (Hepatotoxicity [9]; Liver): 0; HepSE_jaundice (Hepatotoxicity [10]; Liver): 0; HepSE_liver disease (Hepatotoxicity [11]; Liver): 0; HepSE_liver fatty (Hepatotoxicity [12]; Liver): 0; HepSE_liver function tests abnormal (Hepatotoxicity [13]; Liver): 0; HepSE_Combined Scores (Hepatotoxicity [14]; Liver): 1
NS(=O)(=O)c1cc2c(cc1Cl)NCNS2(=O)=O [HYDROCHLOROTHIAZIDE]	0	0	0	0	0	0	0	0	0	1	0	0	0	1	
C[C@]12CCC(=O)C=C1CC[C@@H]1[C@@H]2[C@@H](O)C[C@@]2(C)[C@H]1CC[C@]2(O)C(=O)CO [HYDROCORTISONE]	0	0	0	0	0	0	0	0	1	0	0	0	0	1	
NS(=O)(=O)c1cc2c(cc1C(F)(F)F)NCNS2(=O)=O [HYDROFLUMETHIAZIDE]	0	0	0	0	0	0	0	0	0	1	0	0	0	1	
CN1CC[C@]23c4c5ccc(O)c4O[C@H]2C(=O)CC[C@H]3[C@H]1C5 [HYDROMORPHONE]	0	1	0	0	0	1	0	0	1	1	0	0	1	5	
CCN(CCO)CCCC(C)Nc1ccnc2cc(Cl)ccc12 (stereo not drawn) [HYDROXYCHLOROQUINE]	0	0	0	0	0	1	0	0	0	0	0	0	0	1	
NC(=O)NO [HYDROXYUREA]	0	0	0	0	0	0	0	0	0	0	0	0	0	0	
OCCOCCN1CCN(C(c2ccccc2)c2ccc(Cl)cc2)CC1 (stereo not drawn) [HYDROXYZINE]	0	0	0	0	0	0	0	0	0	0	0	0	0	0	
CCCCCN(C)CCC(O)(P(=O)(O)O)P(=O)(O)O [IBANDRONIC ACID]	0	0	0	0	0	0	0	0	0	0	0	0	0	0	
CC(C)Cc1ccc(C(C)C(=O)O)cc1 (stereo not drawn) [IBUPROFEN]	0	0	0	0	0	1	1	1	0	1	0	0	1	5	
CCCCCCCN(CC)CCCC(O)c1ccc(NS(C)(=O)=O)cc1 (stereo not drawn) [IBUTILIDE]	0	0	0	0	1	0	0	0	0	0	0	0	0	1	
